Experimental findings from patent publication US5599975A, “Cyclised analogues of fatty acid metabolites” (Adir Et Compagnie, priority 1993, dated 1997) are described below.

This experiment has as its system rabbit platelets. As to the kind of experiment: Platelet aggregation study: anti-aggregating effect on platelets activated with collagen. The experiment is classed as cell-based. The note with it: Oryctolagus cuniculus, 0.05 h, collagen (2 μl/ml), 37° C., 3 minutes incubation, aggregometer, 1000 rpm, read-out: IC50 (concentration of antagonist necessary to produce 50% inhibition of the aggregating responses to collagen). The procedure: The study is carried out on rabbit platelets. […] The plasma rich in platelets (PRP) is obtained by centrifuging (20° C.) at 250 g for 20 minutes. The PRP is centrifuged again (1000 g) for 15 minutes and the platelet sediment is again suspended in a saline solution buffered with tris(hydroxymethyl)aminomethane, containing gelatin (0.2%). After centrifuging again (1000 g; 15 min.), the sediment is again suspended in a physiological solution and stored at room temperature.
The anti-aggregating effect of the products is examined on platelets activated with collagen (2 μl/ml). The platelet aggregation is carried out at 37° C. in siliconised glass tubes using an aggregometer (Coultronics). The platelets are stirred at 1000 rpm. To test the antagonist effect, the PRP is incubated for 3 minutes at 37° C. with the substance to be tested. The collagen is then added (2 μl/ml).
Consider `CCCCCC#CCC(O)c1cccc(/C=C\CCCC(=O)O)c1` (centres unmarked) [Example 4], for which the IC50 came to 2.2 µM.
Regarding `CCCCCC(O)c1cccc(/C=C\CCCC(=O)O)c1` (centres unmarked) [Example 12, Sodium (5Z)-6-[3-(1-hydroxyhex-1-yl)phenyl]hex-5-enoate], the IC50 turned out to be 20 µM.
For `CCCCCC(O)c1cccc(CCCCCC(=O)O)c1` (centres unmarked) [Example 15, Sodium 6-[3-(1-hydroxyhexyl)phenyl]hexanoate], the IC50 stood at 21 µM.
Then `CCCCCC(O)c1cccc(/C=C\CCCC(=O)O)n1` (centres unmarked) [Example 18, Sodium (5Z)-6-[6-(1-hydroxyhex-1-yl)pyrid-2-yl]hex-5-enoate], with 30 µM; and `CCCCC/C=C\CC(O)c1cccc(/C=C\CCCC(=O)O)c1` (centres unmarked) [Example 26, Sodium (5Z)-6-{3-[(3Z)-(1-hydroxynon-3-en-1-yl)]phenyl}hex-5-enoate], with 1.8 µM.
